Results as given in patent publication US20150119327A1, “DRUG SCREENING PLATFORM FOR RETT SYNDROME” (THE REGENTS OF THE UNIVERSITY OF CALIFORNIA, priority 2012, published 2015).

Legend:
[1] = target: T1, TRPC6 (Homo sapiens, UniProt Q9Y210); settings: cited from earlier work
T1 sequence (Q9Y210 1-931): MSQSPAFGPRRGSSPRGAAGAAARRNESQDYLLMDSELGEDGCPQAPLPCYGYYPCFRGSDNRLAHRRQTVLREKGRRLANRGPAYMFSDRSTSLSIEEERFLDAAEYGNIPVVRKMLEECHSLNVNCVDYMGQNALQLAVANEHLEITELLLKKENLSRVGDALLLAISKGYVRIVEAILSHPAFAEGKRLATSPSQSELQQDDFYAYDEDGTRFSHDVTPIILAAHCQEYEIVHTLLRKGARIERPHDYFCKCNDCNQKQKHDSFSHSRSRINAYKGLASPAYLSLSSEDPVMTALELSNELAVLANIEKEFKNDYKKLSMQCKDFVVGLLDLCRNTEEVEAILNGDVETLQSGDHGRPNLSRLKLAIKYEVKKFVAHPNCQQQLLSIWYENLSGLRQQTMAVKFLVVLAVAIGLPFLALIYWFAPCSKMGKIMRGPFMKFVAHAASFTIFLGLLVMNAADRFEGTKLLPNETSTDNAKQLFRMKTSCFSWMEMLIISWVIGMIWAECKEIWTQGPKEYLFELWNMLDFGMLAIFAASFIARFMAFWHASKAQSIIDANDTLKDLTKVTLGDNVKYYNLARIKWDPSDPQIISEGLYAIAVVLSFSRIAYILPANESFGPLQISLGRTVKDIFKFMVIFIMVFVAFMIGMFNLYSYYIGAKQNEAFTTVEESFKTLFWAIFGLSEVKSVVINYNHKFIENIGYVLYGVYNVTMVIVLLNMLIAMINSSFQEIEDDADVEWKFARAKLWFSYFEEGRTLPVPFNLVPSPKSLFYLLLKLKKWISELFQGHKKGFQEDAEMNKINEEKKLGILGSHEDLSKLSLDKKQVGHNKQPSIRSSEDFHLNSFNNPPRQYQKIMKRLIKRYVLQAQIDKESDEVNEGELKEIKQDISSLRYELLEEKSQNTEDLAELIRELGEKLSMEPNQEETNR

[2] = tested on: Na^+ current; assay type: cell-based, human
[3] = tested on: K^+ current; assay: Whole-cell patch clamp recording of K+ current in iPSC-derived neuron; assay type: cell-based, human; settings: 20 mM
Protocol: Whole-cell patch clamp recordings were performed from cells cultured in the absence of astrocytes after approximately 6 weeks of differentiation. Before recordings, the growth media was removed and replaced with a bath solution comprised of (in mM): 130 NaCl, 3 KCl, 1 CaCl2, 1 MgCl2, HEPES, and 10 glucose (pH 7.4) at room temperature (22-24° C.). Electrodes for whole cell recording were pulled on a Flaming/Brown micropipette puller (Model P-87, Sutter Instrument, Novato, Calif.) from filamented borosilicate capillary glass (1.2 mm OD, 0.69 mm ID, World Precision Instruments, Sarasota, Fla.). The electrodes were fire-polished, and resistances were typically 2-5 MΩ for voltage-clamp experiments and 7-9 MΩ for current-clamp experiments. The pipette solution contained (in mM): 138 KCl, 0.2 CaCl2, 1 MgCl2, 10 HEPES (Na^+ salt), and 10 EGTA, (pH 7.4). The osmolarity of all solutions was adjusted to 290 mOsM. All chemicals were purchased from Sigma-Aldrich (St. Louis, Mo.) except MgCl2 (J.T. Baker, Phillipsburg, N.J.). Current traces in voltage clamp were leak-subtracted. Liquid junction potentials were nulled for each individual cell with the Axopatch 1C amplifier (Molecular Devises, Sunnyvale, Calif.).

[4] = tested on: human neurons; assay: Synapse quantification by Odyssey in-cell western in 96- or 24-well plates; assay type: cell-based; settings: preliminary data
Text: Fibroblasts from patients are reprogrammed to a pluripotent state and further differentiated into neuro progenitor cells (NPCs). These NPCs can be expanded in appropriated culture conditions and, under the right signals, induced to differentiated into postmitotic neurons (see schematic; FIG. 11). Several adjustments were done on the neuronal differentiation protocol, reducing by half the time needed to generate neurons from NPCs. Such adjustments include specific factors and cell manipulations at different stages of the protocol. At this stage, disease neurons can reveal a phenotype that is related to the mutations on the MeCP2 gene. We focused on synapse quantification. Instead of manual synapse counting, we are using an Odyssey machine that can estimate the number of synapses by detecting specific wavelengths in a 96- or 24-well plates (see FIG. 11). […] Alternatively, we are using specific synaptic tools to visualize synaptogeneses in real time that could be detected by any time-lapse fluorescence microscope.

[5] = tested on: RTT-like symptoms; settings: mouse model; cited from earlier work
[6] = tested on: human neurons; settings: cited from earlier work
[7] = tested on: TRPC6-mutant neurons; assay: VGLUT1 puncta / glutamatergic synapse number in TRPC6-mutant neurons (rescue); assay type: cell-based, human; settings: 10 ηg/mL for two weeks
Protocol: Neuronal tracing was performed on neurons for which that the shortest dendrite was at least three-times longer than the cell soma diameter, using a semi-automatic ImageJ plug-in (NeuroJ). Spines and VGLUT1 puncta were quantified after three-dimensional reconstruction of z-stack confocal images. Only neurons with spines were scored. Pictures were taken randomly for each individual and from two different experiments, using at least two different clones. Quantification was done blindly to the genotype of the cells. All experiments were performed with independent clones and different controls. For the rescue experiments, 10 ηg/mL of IGF1 (Peprotech) was added to neuronal cultures for 2 weeks.

Compound: O=C(O)c1ccccc1Nc1cccc(C(F)(F)F)c1 [FFA, flufenamic acid]
- currents through TRPC6 channel [1]: increases the amplitude

Compound: CC(C)=CCC[C@]1(C)[C@@H](CC=C(C)C)C[C@@]2(CC=C(C)C)C(=O)[C@]1(C(=O)C(C)C)C(=O)C(CC=C(C)C)=C2O [Hyperforin, hyperforin]
- TRPC6 activation [1]: specifically activates

Compound: NC1=N[C@H](O)[C@H]2[C@H]3O[C@]4(O)O[C@@H]([C@@H](O)[C@@]2(N1)[C@@H]4O)[C@]3(O)CO [Tetrodotoxin (TTX), Tetrodotoxin]
- Na^+ current [2]: blocked

Compound: CC[N+](CC)(CC)CC [tetraethalammonium (TEA), tetraethalammonium]
- K^+ current [3]: blocked

Compound: IGF-1: Insulin-like growth factor 1 (IGF-1), also referred to as somatomedin C
- synapse number estimate (Odyssey), response to drug [4]: small alterations
- RTT-like symptoms [5]: reversal
- RTT-like symptoms [6]: reversal
- synapse number [6]: increase
- glutamatergic synapse number [7]: increase
